# Test system: BT-20 cells (EPHB6-targeting shRNA vs non-silencing shRNA)
# Assay: Drug sensitivity assay (resazurin), SRC inhibitors, BT-20 cells with silenced EPHB6
# Assay type: cell-based, human
# Conditions: BT-20 with EPHB6-targeting shRNA vs non-silencing shRNA, 96 h (FIGS. 6A-6E)
# Protocol: FIG. 6. SL relation between EPHB6 and SRC in BT-20 TNBC cells. A. Triple negative breast cancer cells, BT-20, were transduced with EPHB6-targeting shRNA (BT20-66-shRNA), or non-silencing shRNA (BT2O-NS). EPHB6 expression was analyzed by Western blotting with anti-EPHB6. Western blotting with anti-tubulin was used as a loading control. B. BT20-66-shRNA and BT2O-NS cells were cultured in 96-well plates with indicated concentrations of SU6656 or matching volumes of DMSO for 96 h. Cells were stained with resazurin and fluorescence was measured using a SpectraMax M5 plate reader to determine cell suppression. Five wells were analyzed per condition. […] C. […] Cells were stained with resazurin and fluorescence was measured using a SpectraMax M5 plate reader to determine cell suppression. Five wells were analyzed per condition. […] PI-stained cells were counted in at least 10 randomly captured frames. […] Stained cells were analyzed by flow cytometry and the FlowJo software. […]
# MDA-MB-231 and BT-20 cell monolayers were incubated in 96-well plates for 72 h and 96 h, respectively, with indicated concentrations of KX2-391 or SU6656, or matching volumes of DMSO as a solvent control. Treated cells were stained using resazurin by following the manufacturer's instructions and fluorescence was measured using a SpectraMax M5 microplate reader.
smiles,measurement,value
O=C(Cc1ccc(-c2ccc(OCCN3CCOCC3)cc2)cn1)NCc1ccccc1 [KX2-391],cell suppression after silencing of EPHB6 expression,strongly increased their suppression
